Laboratory results: publication PMC3274524, “In Vitro Pharmacological Characterization of RXFP3 Allosterism: An Example of Probe Dependency” (PLoS ONE, 2012)

Key:
serotonin 5-HT1A = target: T1, serotonin 5-HT1A (Homo sapiens, UniProt P08908); assay: radioligand binding selectivity panel (CEREP/in house), single concentration
T1 construct: gene HTR1A
T1 sequence (P08908 1-422): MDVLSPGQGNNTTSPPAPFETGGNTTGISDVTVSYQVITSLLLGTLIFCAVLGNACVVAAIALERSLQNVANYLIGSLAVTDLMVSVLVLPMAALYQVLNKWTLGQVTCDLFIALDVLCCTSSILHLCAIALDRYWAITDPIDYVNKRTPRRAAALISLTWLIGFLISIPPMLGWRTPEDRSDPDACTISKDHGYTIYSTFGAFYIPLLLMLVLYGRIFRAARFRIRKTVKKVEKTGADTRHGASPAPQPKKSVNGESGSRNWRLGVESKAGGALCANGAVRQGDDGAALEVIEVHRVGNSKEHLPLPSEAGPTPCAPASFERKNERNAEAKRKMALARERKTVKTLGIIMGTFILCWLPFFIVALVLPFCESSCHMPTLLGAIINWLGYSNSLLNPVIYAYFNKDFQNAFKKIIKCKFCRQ

dopamine transporter = target: T2, dopamine transporter (Homo sapiens, UniProt Q01959); assay: as above
T2 construct: gene SLC6A3

[1] = target: T3, norepinephrine transporter (Homo sapiens, UniProt P23975); assay: as above
T3 construct: gene SLC6A2

[2] = target: T4, RXFP3 (relaxin-3 receptor; GPCR135; SALPR) (Homo sapiens, UniProt Q9NSD7); assay: Ca2+ mobilization (FLIPR) agonist curve shift, allosteric ternary complex model; also increased […]R3/I5NH2 binding in membranes; type: cell-based
T4 construct: cloned human RXFP3 receptor, stably expressed in HEK-293 cells with GqI5; with Relaxin-3NH2 (amidated orthosteric agonist; also R3/I5NH2)
T4 sequence (Q9NSD7 1-469): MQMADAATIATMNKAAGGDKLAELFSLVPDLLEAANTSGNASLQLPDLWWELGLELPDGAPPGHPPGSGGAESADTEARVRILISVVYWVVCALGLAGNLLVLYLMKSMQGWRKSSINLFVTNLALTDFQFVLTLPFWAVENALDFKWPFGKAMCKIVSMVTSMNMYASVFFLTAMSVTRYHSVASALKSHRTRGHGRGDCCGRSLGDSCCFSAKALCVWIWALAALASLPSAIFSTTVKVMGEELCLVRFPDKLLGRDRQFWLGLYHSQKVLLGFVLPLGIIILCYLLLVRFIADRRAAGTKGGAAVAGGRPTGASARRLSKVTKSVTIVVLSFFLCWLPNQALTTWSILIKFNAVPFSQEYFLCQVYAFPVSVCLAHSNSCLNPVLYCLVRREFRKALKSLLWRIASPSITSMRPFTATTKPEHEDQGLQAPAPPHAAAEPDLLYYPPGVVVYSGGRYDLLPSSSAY

T2 sequence (Q01959 whole entry): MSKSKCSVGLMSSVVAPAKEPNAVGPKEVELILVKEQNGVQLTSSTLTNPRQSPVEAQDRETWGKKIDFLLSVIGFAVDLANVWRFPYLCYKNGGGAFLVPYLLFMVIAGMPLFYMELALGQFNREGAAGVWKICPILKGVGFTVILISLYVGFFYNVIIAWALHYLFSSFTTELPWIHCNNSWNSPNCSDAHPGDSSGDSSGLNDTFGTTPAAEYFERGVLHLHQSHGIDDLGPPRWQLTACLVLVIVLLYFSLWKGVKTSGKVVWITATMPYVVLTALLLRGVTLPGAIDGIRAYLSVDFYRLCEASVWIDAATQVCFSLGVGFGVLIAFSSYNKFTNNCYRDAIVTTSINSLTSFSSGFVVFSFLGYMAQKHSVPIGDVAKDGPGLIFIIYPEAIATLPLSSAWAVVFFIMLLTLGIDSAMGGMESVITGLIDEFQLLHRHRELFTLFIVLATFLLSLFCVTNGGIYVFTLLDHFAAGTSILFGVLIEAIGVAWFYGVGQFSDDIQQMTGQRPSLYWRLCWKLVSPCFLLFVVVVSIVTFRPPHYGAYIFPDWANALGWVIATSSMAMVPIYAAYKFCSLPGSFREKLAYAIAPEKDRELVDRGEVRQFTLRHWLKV
T3 sequence (P23975 whole entry): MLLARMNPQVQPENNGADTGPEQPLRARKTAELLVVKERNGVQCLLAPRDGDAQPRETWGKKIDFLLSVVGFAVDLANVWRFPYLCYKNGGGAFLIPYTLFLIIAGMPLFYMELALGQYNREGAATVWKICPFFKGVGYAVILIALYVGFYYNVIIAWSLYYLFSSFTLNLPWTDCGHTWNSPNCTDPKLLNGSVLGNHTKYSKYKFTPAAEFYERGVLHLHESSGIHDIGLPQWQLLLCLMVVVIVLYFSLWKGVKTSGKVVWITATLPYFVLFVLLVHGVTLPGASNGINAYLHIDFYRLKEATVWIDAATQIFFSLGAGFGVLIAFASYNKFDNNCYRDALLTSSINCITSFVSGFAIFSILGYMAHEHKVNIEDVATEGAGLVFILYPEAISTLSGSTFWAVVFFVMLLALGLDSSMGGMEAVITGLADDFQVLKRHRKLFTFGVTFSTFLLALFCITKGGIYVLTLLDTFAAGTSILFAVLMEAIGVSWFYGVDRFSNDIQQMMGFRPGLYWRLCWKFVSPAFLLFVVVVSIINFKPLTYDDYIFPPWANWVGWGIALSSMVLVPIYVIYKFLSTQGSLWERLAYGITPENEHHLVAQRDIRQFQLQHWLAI

COc1ccc2[nH]cc(CCN(Cc3ccc(Cl)c(Cl)c3)C(=O)Nc3cc(C(F)(F)F)cc(C(F)(F)F)c3)c2c1 [135PAM1, 3-[3,5-Bis(trifluoromethyl)phenyl]-1-(3,4-dichlorobenzyl)-1-[2-(5-methoxy-1H-indol-3-yl)ethyl]urea]
inhibition at 10 µM (serotonin 5-HT1A): 74%
inhibition at 10 µM (dopamine transporter): 83%
inhibition at 10 µM [1]: 59%
Kb [2]: 355 nM
